Assay results taken from ChEMBL document CHEMBL4002636, “Alkaloids from the mangrove endophytic fungus Diaporthe phaseolorum SKS019” (Bioorg Med Chem Lett, 2017).
Activity calls are given as the source filed them. No cut-off for these calls is given here.

Assays:
[1] = system: MDA-MB-435; assay: Cytotoxicity against human MDA-MB-435 cells assessed as growth inhibition after 48 hrs by MTT assay; assay type: functional, cell-based; details: MDA-MB-435, 48 h
[2] = system: HCT-116; assay: Cytotoxicity against human HCT116 cells assessed as growth inhibition at 50 uM after 48 hrs by MTT assay; assay type: functional, cell-based
[3] = system: MDA-MB-435; assay: Cytotoxicity against human MDA-MB-435 cells assessed as growth inhibition at 50 uM after 48 hrs by MTT assay; assay type: functional, cell-based
[4] = system: NCI-H460; assay: Cytotoxicity against human NCI-H460 cells assessed as growth inhibition at 50 uM after 48 hrs by MTT assay; assay type: functional, cell-based
[5] = system: HepG2; assay: Cytotoxicity against human HepG2 cells assessed as growth inhibition at 50 uM after 48 hrs by MTT assay; assay type: functional, cell-based
[6] = system: HepG2; assay: Cytotoxicity against human HepG2 cells assessed as growth inhibition after 48 hrs by MTT assay; assay type: functional, cell-based; details: HepG2, 48 h
[7] = system: HCT-116; assay: Cytotoxicity against human HCT116 cells assessed as growth inhibition after 48 hrs by MTT assay; assay type: functional, cell-based; details: HCT-116, 48 h
[8] = system: NCI-H460; assay: Cytotoxicity against human NCI-H460 cells assessed as growth inhibition after 48 hrs by MTT assay; assay type: functional, cell-based; details: NCI-H460, 48 h
[9] = system: MCF-10A; assay: Cytotoxicity against human MCF10A cells assessed as growth inhibition after 48 hrs by MTT assay; assay type: cell-based

Structure (SMILES)	IC50 [1] [µM]	growth inhibition (GI) [2]	growth inhibition (GI) [3]	growth inhibition (GI) [4]	growth inhibition (GI) [5]	IC50 [6] [µM]	IC50 [7] [µM]	IC50 [8] [µM]	IC50 [9] [µM]
COC(=O)c1cc(OC)c(OC)c2oc3cc(C)ncc3c(=O)c12	> 50	inactive	inactive	inactive	inactive	> 50	> 50	> 50	> 50
COc1cccc2c1C(=O)c1c(O)c3c(c(O)c1C2=O)C[C@@](O)(C(=O)CO)C[C@@H]3O[C@H]1C[C@H](N)[C@@H](O)[C@H](C)O1 [EPIRUBICIN]	0.26	–	–	–	–	0.32	0.37	0.12	0.13
O=C(O)CCCCN1Cc2c(O)cc(O)cc2C1=O	> 50	inactive	inactive	inactive	inactive	> 50	> 50	> 50	> 50
COC(=O)c1cc(OC)c(OC(C)=O)c2oc3cc(C)ncc3c(=O)c12	> 50	inactive	inactive	inactive	inactive	> 50	> 50	> 50	> 50
O=C1c2cc(O)cc(O)c2CN1CCO	> 50	inactive	inactive	inactive	inactive	> 50	> 50	> 50	> 50
COC(=O)c1cc(OC)cc2oc3cc(C)ncc3c(=O)c12	> 50	inactive	inactive	inactive	inactive	> 50	> 50	> 50	> 50
COC(=O)CCCCN1Cc2c(O)cc(O)cc2C1=O	> 50	inactive	inactive	inactive	inactive	> 50	> 50	> 50	> 50
COC(=O)c1cc(O)cc2oc3cc(CO)ncc3c(=O)c12	> 50	inactive	inactive	inactive	inactive	> 50	> 50	> 50	> 50
COc1cc(O)c2c(c1)C(=O)c1cc(C)ncc1C2=O	5.32	–	–	–	–	> 50	34.8	6.57	9.31
